The values below come from patent publication US6686445B1, “Synthetic antineoplastic agents derived from dolastatin 15 and methods of making same” (Arizona Board of Regents, acting for and on behalf of …, priority 1997, dated 2004).

SMILES strings stand for the structures. Where two headings read alike, the source gives them in different places. Where a SMILES comes first, the peptide text is derived from it. [ ]: non-standard residue; d: D form. The star is where a group is joined. X1 = COC1=CC(=O)N(C(=O)[C@@H](O*)C(C)C)[C@H]1Cc1ccccc1; NMe2Val = CC(C)[C@@H](C(=O)*)N(C)C; NH(thiazol-2-yl) = c1csc(N*)n1; NMeV = CN[C@H](C(=O)O)C(C)C; Hiv = CC(C)[C@H](O)C(=O)O; NHPh = c1ccc(N*)cc1

Test [1] deals with human CA46 Burkitt lymphoma cells. The experiment in a line: mitotic arrest in drug-treated CA46 Burkitt cells. Type of test: cell-based. Particulars: 80 nM drug for 20 hours, control cells 3% mitotic.
Description: To further verify the assumption that this entire series of compounds is acting intracellularly by interfering with tubulin function, the drug-treated Burkitt cells for mitotic arrest were analyzed.
Test [2] has as its system tubulin. Briefly: tubulin polymerization inhibition, 0.8 M glutamate at 30° C. It is filed as biochemical. Particulars: read-out: tubulin assembly IC50. The protocol: (§1) All compounds synthesized were first evaluated for in vitro antitumor activity against murine P388 lymphocytic leukemia cells and against murine L1210 leukemia cells and human CA46 Burkitt lymphoma cells using techniques described by Hamel & Lin (see: HAMEL, E., and LIN, C. M., […], Interaction of combretastatin, a new plant-derived antimitotic agent, with tubulin, Biochemical Pharmacology, 32, 3864). The compounds were also evaluated in the NCI's human tumor 60-cell-line in intro primary screen as described by Monks et al. (see: MONKS, A., SCUDIERO, et al., 1991, New colorimetric cytotoxicity assay for anticancer drug screening, Journal of the National Cancer Institute, 83, 757). Data analyses were performed using methods described by Boyd and Paull (see: BOYD, M. R., et al., 1995, Some practical considerations and applications of the National Cancer Institute in vitro anticancer drug discovery screen, Drug Development Research, 34, 91). A tubulin polymerization inhibition assay was performed according to a modified version of the procedure used previously and described by Muzaffar et al. (see: MUZAFFAR, A., et al., 1990, Antitubulin effects of derivatives of 3-demethylthiocolchicine, methylthio esters of natural colchicinoids, and thioketones derived from thiocolchicine, Comparison with colchicine, Journal of Medicinal Chemistry, 33, 567) to evaluate the effects of dolastatin 15 on cellular microtubule assembly. The new assay for these compounds employed a drug-tubulin preincubation (15 min.) with 10 μM tubulin in 0.8 M glutamate at 30° C., followed by addition of GTP and incubation (20 min.) at 30° C., with tubulin polymerization monitored turbidimetrically in GILFORD recording spectrophotometers.
Since these high molecular weight polymers, like microtubules, scatter light, they make it impossible to quantify drug effects by turbidimetry or centrifugation. […] (no MgCl2 added to reactions).

Test [3] deals with murine P388 lymphocytic leukemia cells. Briefly: growth inhibition of murine P388 lymphocytic leukemia cells. Type of test: cell-based. Particulars: dosage inhibiting tumor cell growth by 50%. How it is done:
as §1

For test [4], the system named is NCI 60-cell-line in vitro human tumor panel. Particulars: read-out: Mean Panel GI50; mean ± S.D. of triplicate tests (* duplicate). How it is done: as §1
Test [5] concerns human CA46 Burkitt lymphoma cells. Particulars: read-out: Human CA46 Burkitt Lymphoma IC50; cells counted after 20 hours. How it is done: as §1
Test [6] concerns murine L1210 leukemia cells. Particulars: read-out: Mouse Leukemia L1210 IC50; cells counted after 24 hours of growth. The protocol:
as §1

The test system of the next test is Erwinia carotovora. Briefly: antimicrobial disk susceptibility test. It is filed as cell-based. Particulars: twofold dilutions. The protocol:
Antimicrobial disk susceptibility tests were performed according to the method established by the National Committee for Clinical Laboratory Standards (NCCLS, 1997). MUELLER-HINTON agar was used for susceptibility testing of Staphylococcus aureus, Enterococcus faecalis, Micrococcus luteus, Escherichia coli, Enterobacter cloacae, Bacillus subtilis, Pseudomonas aeruginosa, and Erwinia carotovora, Gonococcal Typing agar for Neisseria gonorrhoeae, and YM agar for Candida albicans and Cryptococcus neoformans. Immediately prior to susceptibility assays, compounds were reconstituted in sterile DMSO and twofold dilutions applied to sterile 6-mm disks. Zones of inhibition were read at 16 hours for bacterial cultures (except for M. luteus) and 42 hours for fungal cultures and M. luteus. MIC determinations were performed in duplicate.

Test [7] relates to tubulin. Particulars: cited from earlier work.
Test [8] concerns tubulin. Particulars: read-out: tubulin polymerization IC50 (new experiments); 1 M monosodium glutamate-1 mM MgCl2; maximum concentration used 40 μM.

Turning to `CC(C)[C@H](NC(=O)[C@H](C(C)C)N(C)C)C(=O)N(C)[C@H](C(=O)N1CCC[C@H]1C(=O)N1CCC[C@H]1C(=O)O[C@H](C(=O)Nc1ccccc1)C(C)C)C(C)C` [Compound 12a] (NMe2Val-V[NMeV]PP[Hiv]-NHPh), the “% Mitotic Cells” value in test [1] is listed as 26%. The IC50 with tubulin [2] worked out at 26000 nM; in [5], 2 nM; in test [6], 3 nM. For the same compound, the “Mouse Leukemia P388 ED50” value in test [3] is 0.52 ng/mL. For the same compound, in [4], the GI50 was 1.25 ± 0.48 nM.

Take `CC(C)[C@H](NC(=O)[C@H](C(C)C)N(C)C)C(=O)N(C)[C@H](C(=O)N1CCC[C@H]1C(=O)N1CCC[C@H]1C(=O)O[C@H](C(=O)Nc1nccs1)C(C)C)C(C)C` [Compound 12p] (NMe2Val-V[NMeV]PP[Hiv]-{NH(thiazol-2-yl)}): in test [1], the “% Mitotic Cells” value is 40%. Besides, the IC50 in the test with tubulin [2] is 8400 nM; in test [5], 4 nM; in [6] it was 2 nM. In addition, the “Mouse Leukemia P388 ED50” value in test [3] was found to be 0.26 ng/mL. Besides, the “Minimum inhibitory concentration, Erwinia carotovora” value with Erwinia carotovora is recorded as 50-100 μg/disk. The GI50 in test [4] turned out to be 1.2 nM.

As to `COC1=CC(=O)N(C(=O)[C@@H](OC(=O)[C@@H]2CCCN2C(=O)[C@@H]2CCCN2C(=O)[C@H](C(C)C)N(C)C(=O)[C@@H](NC(=O)[C@H](C(C)C)N(C)C)C(C)C)C(C)C)[C@H]1Cc1ccccc1` [Compound 1, dolastatin 15] (NMe2Val-V[NMeV]PP-X1), in test [1], the “% Mitotic Cells” value is given as 31%. The half-inhibitory concentration (IC50) in the test with tubulin [2] was 5200 nM; in the test on tubulin [7] (read-out: tubulin polymerization IC50 (Bai et al. 1992), 10 μM tubulin, 1 M monosodium glutamate-1 mM MgCl2, 20 min at 37° C.), 23000 nM; with tubulin [8], 19000 ± 300 nM; in test [5], 2 nM; in test [6], 4 nM. Further, in the test on tubulin [7] (relative to dolastatin 10), the “interaction with purified tubulin weaker than that of dolastatin 10” value was “about 20 fold”. Also, in test [3], the “Mouse Leukemia P388 ED50” value is recorded as 2.4 ng/mL. Moreover, the “Minimum inhibitory concentration, Erwinia carotovora” value with Erwinia carotovora is recorded as 3.12-6.25 μg/disk. Moreover, the GI50 in test [4] was 1.12 ± 0.5 nM.
